Measurements published in the PolyMetriX glass transition set.

Structure (SMILES) | glass transition temperature [°C]
*C(=O)c1ccc2c(c1)C(=O)N(c1ccc(Oc3ccc(S(=O)(=O)c4ccc(C)cc4)cc3)c(N3C(=O)c4ccc(*)cc4C3=O)c1)C2=O (repeat unit) | 293.00
*CCCc1nc2cc(-c3ccc4[nH]c(*)nc4c3)ccc2[nH]1 (repeat unit) | 275.00
*Oc1ccc(-c2ccc(-c3ccc(Oc4ccc(C(=O)c5cccc(C(=O)c6ccc(*)cc6)c5)cc4)cc3)cc2)cc1 (repeat unit) | 174.00
*Oc1ccc(C(C)(C)c2ccc(Oc3nc(*)nc(Cl)n3)cc2)cc1 (repeat unit) | 80.00
*Oc1ccc(C(c2ccc(Oc3ccc(C(=O)c4cccc(C(=O)c5ccc(*)cc5)c4)cc3)cc2)(C(F)(F)F)C(F)(F)F)cc1 (repeat unit) | 168.10
*Oc1ccc(C2(c3ccc(Oc4ccc5c(=O)n6c7cc(-c8ccc9c(c8)nc8c%10ccc(*)c%11cccc(c(=O)n98)c%11%10)ccc7nc6c6cccc4c56)cc3)c3ccccc3C(=O)c3ccccc32)cc1 (repeat unit) | 428.00
*Oc1ccc(S(=O)(=O)c2ccc(*)cc2)cc1 (repeat unit) | 225.00
*Oc1ccc(S(=O)(=O)c2ccc(Oc3ccc(/C=C4\CCC/C(=C\c5ccc(Oc6ccc(S(=O)(=O)c7ccc(Oc8ccc(C(C)(C)c9ccc(*)cc9)cc8)cc7)cc6)cc5)C4=O)cc3)cc2)cc1 (repeat unit) | 194.00
*Oc1ccc(S(=O)(=O)c2ccc(Oc3ccc(C(C)(C)c4ccc(*)c(N)c4)cc3N)cc2)c(N)c1 (repeat unit) | 237.10
*Oc1ccc(S(=O)(=O)c2ccc(Oc3ccc(C(C)(C)c4ccc(*)c(N)c4)cc3N)cc2)cc1 (repeat unit) | 230.40
*Oc1ccc(S(=O)(=O)c2ccc(Oc3ccc(C(C)(CCC(=O)O)c4ccc(*)cc4)cc3)cc2)cc1 (repeat unit) | 163.00
*Oc1ccc(S(=O)(=O)c2ccc(Oc3ccc(C(C)(c4ccccc4)c4ccc(*)cc4)cc3)cc2)cc1 (repeat unit) | 207.00
*Oc1ccc(S(=O)(=O)c2ccc(Oc3ccc(C(c4ccc(*)c([Si](C)(C)C)c4)(C(F)(F)F)C(F)(F)F)cc3[Si](C)(C)C)cc2)cc1 (repeat unit) | 168.60
*Oc1ccc(S(=O)(=O)c2ccc(Oc3ccc(Sc4ccc(*)cc4)cc3)cc2)cc1 (repeat unit) | 175.00
*c1ccc(*)c(C(=O)c2ccccc2)c1 (repeat unit) | 180.00
*c1ccc(C(=O)c2ccc(-n3nc(-c4ccccc4)c4cc(Oc5ccc(C(C)(C)c6ccc(Oc7ccc8c(-c9ccccc9)nn(*)c(=O)c8c7)cc6)cc5)ccc4c3=O)cc2)cc1 (repeat unit) | 195.00
*c1ccc(Cc2ccc(N3C(=O)c4ccc([Si](C)(C)c5ccc([Si](C)(C)c6ccc7c(c6)C(=O)N(*)C7=O)cc5)cc4C3=O)cc2)cc1 (repeat unit) | 295.00
*c1ccc(N2C(=O)c3ccc(Oc4ccc(C(C)(C)c5cccc(Oc6ccc7c(c6)C(=O)N(*)C7=O)c5)cc4)cc3C2=O)cc1 (repeat unit) | 268.00
*c1ccc(Oc2ccc(C(=O)c3cccc(C(=O)c4ccc(Oc5ccc(-n6c(=O)c7cc8c(=O)n(*)c(=O)c8cc7c6=O)cc5)cc4)c3)cc2)cc1 (repeat unit) | 247.00
*c1ccc(Oc2ccc(C(=O)c3cccc(C(=O)c4ccc(Oc5ccc(-n6c(=O)c7cc8c(=O)n(*)c(=O)c8cc7c6=O)cc5)cc4)n3)cc2)cc1 (repeat unit) | 324.60

Structure (SMILES) | glass transition temperature [°C]
*c1ccc(Oc2ccc(C(c3ccc(Oc4ccc(N5C(=O)c6ccc(Oc7ccc(C8(c9ccc(Oc%10ccc%11c(c%10)C(=O)N(*)C%11=O)cc9)CCC(C(C)(C)C)CC8)cc7)cc6C5=O)cc4)cc3)(C(F)(F)F)C(F)(F)F)cc2)cc1 (repeat unit) | 227.00
*c1ccc(Oc2ccc(C3(c4ccc(Oc5ccc(N6C(=O)c7ccc(Oc8ccc(C9(c%10ccc(Oc%11ccc%12c(c%11)C(=O)N(*)C%12=O)cc%10)CCC(C(C)(C)C)CC9)cc8)cc7C6=O)cc5)cc4)C4CC5CC(C4)CC3C5)cc2)cc1 (repeat unit) | 266.00
*c1ccc(Oc2ccc(N3C(=O)c4cccc(Oc5ccc(C(C)(C)c6ccc(Oc7cccc8c7C(=O)N(*)C8=O)cc6)cc5)c4C3=O)cc2)cc1 (repeat unit) | 235.00
*c1ccc(Oc2ccc(S(=O)(=O)c3ccc(Oc4ccc(C5(*)OC(=O)c6ccccc65)cc4C)cc3)cc2)c(C)c1 (repeat unit) | 245.00
*c1ccc(Oc2ccc(Sc3ccc(Oc4ccc(-c5nc(*)nc(-c6ccccc6)n5)cc4)cc3)cc2)cc1 (repeat unit) | 211.00
*c1ccc(Oc2ccc3ccc(Oc4ccc(-c5nc(*)nc(-c6ccccc6)n5)cc4)cc3c2)cc1 (repeat unit) | 255.00
*c1ccc(Oc2ccc3ccc(Oc4ccc(N5C(=O)CC(=O)N(*)C5=S)cc4)cc3c2)cc1 (repeat unit) | 151.50
*c1ccc(Oc2cccc(Oc3ccc(N4C(=O)CC(=O)N(*)C4=S)cc3)c2)cc1 (repeat unit) | 145.00
*c1ccc(Oc2cccc(Oc3ccc(N4C(=O)c5ccc(Oc6ccc(C(C)(C)c7ccc(Oc8ccc9c(c8)C(=O)N(*)C9=O)cc7)cc6)cc5C4=O)cc3)c2C#N)cc1 (repeat unit) | 213.00
*c1ccc(Oc2ccccc2Oc2ccc(-n3c(=O)c4cc5c(=O)n(*)c(=O)c5cc4c3=O)cc2)cc1 (repeat unit) | 313.00
*c1ccc(S(*)(=O)=O)cc1 (repeat unit) | 219.50
*c1ccc(S(=O)(=O)c2ccc(N3C(=O)c4ccc(Oc5ccc(C(C)(C)c6ccc(Oc7ccc8c(c7)C(=O)N(*)C8=O)cc6)cc5)cc4C3=O)cc2)cc1 (repeat unit) | 267.00
*c1ccc(Sc2ccc(-c3nn(-c4ccc(S(=O)(=O)c5ccc(-n6nc(*)c7ccccc7c6=O)cc5)cc4)c(=O)c4ccccc34)cc2)cc1 (repeat unit) | 279.00
*c1ccc(Sc2cccc(Sc3ccc(S(*)=O)cc3)c2)cc1 (repeat unit) | 121.00
*c1ccc([Si](CCCC)(CCCC)[Si](*)(CCCC)CCCC)s1 (repeat unit) | -53.00
*c1ccc([Si](c2ccccc2)(c2ccccc2)c2ccc(-c3ccc4c(c3)c3cc(*)ccc3n4CCCCCC#N)cc2)cc1 (repeat unit) | 165.00
*c1cccc(Cc2cccc(N3C(=O)c4ccc([Si](C)(C)c5ccc([Si](C)(C)c6ccc7c(c6)C(=O)N(*)C7=O)cc5)cc4C3=O)c2)c1 (repeat unit) | 246.00
*c1cccc(N2C(=O)c3ccc(Oc4ccc(C(C)(C)c5ccc(Oc6ccc7c(c6)C(=O)N(*)C7=O)cc5)cc4)cc3C2=O)c1 (repeat unit) | 217.50
*c1cccc(P(=O)(c2ccccc2)c2cccc(N3C(=O)c4ccc(Oc5ccc(C(C)(C)c6ccc(Oc7ccc8c(c7)C(=O)N(*)C8=O)cc6)cc5)cc4C3=O)c2)c1 (repeat unit) | 213.00
*c1cccc(P(C)(=O)c2cccc(N3C(=O)c4ccc(Oc5ccc(C(C)(C)c6ccc(Oc7ccc8c(c7)C(=O)N(*)C8=O)cc6)cc5)cc4C3=O)c2)c1 (repeat unit) | 228.00
